Test results: US4524077A, “Liquid 2-hydroxy-4-methylthiobutyric acid and process for the preparation thereof” (priority 1983, dated 1985)

Legend:
[1] = Gardner color of HMBA product; type: physicochemical
Source text: This product has a total HMBA content, including monomer, dimers, and oligomers, of between about 80% and about 95% by weight, preferably 85% to 90% by weight, and a water content of between about 5% and about 20%, preferably between 10% and about 15% by weight. […] The ratio of the weight proportion of HMBA monomer to the weight proportion of the sum of dimers and other oligomers thereof is at least about 2.8, preferably at least about 5.7.

[2] = Extraction of diluted HCl hydrolyzate at 70° C. (Table VIII); type: physicochemical; details: HMBA extract/raffinate, HCl hydrolyzate diluted 100:40 with water
Source text: The phases were separated and analyzed for HMBA.
This work up and extraction was repeated for 1-butanol.

| Compound | Gardner color ([1]; 88% by weight solution in water, Example 1, first method (methyl propyl ketone and water extraction)) | Color (Gardner) ([1]; Example 6, Product) | Gardner color ([1]; Example 13, bottom product, 88.9% HMBA) | Distribution Coefficient [2] |
| --- | --- | --- | --- | --- |
| CSCCC(O)C(=O)O (racemic) [HMBA, 2-hydroxy-4-methylthiobutyric acid] | 5 | 3 | 4 |  |
| CC(=O)CC(C)C [Methyl isobutyl ketone] |  |  |  | 2.4 |
